In patent US20190185339A1, “Zirconium-Based Cluster as a Dentin Tubule Occlusion Agent” (Colgate-Palmolive Company, priority 2017, published 2019):

Experiments:
[1] = pH of the zirconium oxychloride / arginine solutions; assay type: physicochemical
Protocol: (§1) Samples were prepared according to Table 1. Water was added to zirconium oxychloride (ZrOCl2.8H2O, MW 322.25) in a glass jar to yield a clear solution containing 1% zirconium oxychloride. Under stirring, L-arginine was slowly added to prevent clumping of arginine as well as large fluctuations in localized pH values. The solutions were incubated for 1 day at 50° C. Then the solutions were cooled to room temperature. Solid gel was formed in samples with the molar ratio of arginine to zirconium oxychloride of 2-4.
A 100 g batch was prepared according to Table 2. 1% w/w zirconium oxychloride (ZrOCl2.8H2O, MW 322.25) and arginine were mixed in aqueous solution with the molar ratio of arginine to zirconium oxychloride of 1:1.
(§2) The zirconium oxychloride cluster was prepared as described in Example 1. The prepared zirconium oxychloride cluster was purified by gel permeability chromatograph (GPC). GPC column was prepared using Bio-Rad P2 gel with 5 μm particle size. Approximately 10 mL of prepared solution was filtered (0.45 μm) and loaded on the column using a HPLC pump at 0.2 mL/min. The mobile phase of the GPC chromatography was deionized water. Elution fractions were collected in intervals and monitored using SEC-RI. […] The pH of the GPC fraction (1160-1300 min) was 4.5. […] 10 g of this fraction was freeze dried to obtain purified powder for subsequent PXRD analysis.

[2] = Stability in terms of gelation and flocculation (clear or gel); assay type: physicochemical; details: 1% zirconium oxychloride with varied arginine; incubated 1 day at 50° C., cooled to room temperature
Protocol: In some embodiments, the zirconium oxychloride cluster of the invention is stable at pH 2-6, 3-5, 3-4, 3.5-4.5 or 4-4.5, in solution, e.g., in aqueous solution.
as §1, §2

[3] = solution of zirconium oxychloride which is effective as an antiperspirant; cited from earlier work

pH ([1]; 1% zirconium oxychloride with varied arginine, incubated 1 day at 50° C., cooled to room temperature): 1.39
pH value ([1]; zirconium oxychloride alone, general statement): < 2
appearance (clear / gel) [2]: clear
SMILES: [Cl-].[Cl-].[O]=[Zr+2] [Zr, zirconium oxychloride (ZrOCl2.8H2O, MW 322.25)]
pH of solution [3]: about 0.8
